PMC11026318, “Radiolabeled 15-mer peptide internalization is mediated by megalin (LRP2 receptor) in a CRISPR/Cas9-based LRP2 knockout human kidney cell model” (EJNMMI Radiopharmacy and Chemistry, 2024)

Columns and labels:
[1] = tested on: HK2 cells (parent, partial KO, LRP2 KO); experiment: Viability assay with gentamicin at cytotoxic concentration (CellTiter 96 AQueous One); assay type: cell-based, human; conditions: gentamicin 6 mg/mL, 48 h
Description: The cells were seeded in a 96-well plate (10^4 cells per well) 24 h prior to the experiment. The cells treated with gentamicin at cytotoxic concentration (6 mg/mL) were incubated in parallel with the controls in standard culture medium (representing 100% cell viability). The cells cultivated with 10% DMSO in culture medium represent 0% cell viability, which was measured after 48 h using the CellTiter 96® AQueous One Solution Cell Proliferation Assay (Promega) according to the manufacturer’s protocol. Absorbance was detected using a spectrophotometric plate reader (TECAN Infinite M200).

[2] = tested on: vascular endothelial growth factor (VEGF) receptor; conditions: in both in vitro and in vivo studies; ref Basile et al. [2011]; cited from earlier work
[3] = target: T1, megalin (LRP2 receptor) in HK2 cells (Homo sapiens, UniProt P98164); experiment: FITC-albumin accumulation studies in parent HK2 vs LRP2 knockout cells; assay type: cell-based; conditions: 24 µg/mL, 2 h; fluorescence of cell lysates related to total protein
T1 construct: a human kidney cell line with high endogenous megalin expression; host or cells: HK2 human kidney epithelial cells (parent), compared with CRISPR/Cas9 LRP2 KO derivatives
Description: The CRISPR/cas9 gene editing technique was implemented to generate LRP2 KO HK2 cells (Fig. 1) employing designed sgRNA sequences (Table 1). HK2 cells were seeded on 24-well plate (10^5 cells/well). Cells were transfected by sgRNA (720 ng per reaction) and TrueCut™ Cas9 Protein v2 (3 840 ng per reaction; Invitrogen) using Lipofectamine™ CRISPRMAX™ Cas9 Transfection Reagent (Invitrogen) according to the manufacturer’s instructions 24 h after seeding. The knockout reactions were repeated twice for each sgRNA. Each transfection was performed after 48 h of recovery. The final group of cells transfected sequentially six times was designated as LRP2 KO. A group of cells transfected only once with NPMY sgRNA but twice with TMD and PPPSPS sgRNAs, was designated as partial KO (Figs. 2A–E, 5A and B).
The accumulation studies of fluorescein isothiocyanate-labelled albumin (FITC-albumin, Merck) were performed in 24-well plates (10^5 cells per well). The cells were incubated with 24 µg/mL FITC-albumin, and Passive Lysis Buffer (Promega) was added to lyse the cells after 2 h treatment. The accumulated FITC-albumin was quantified by measuring the fluorescence intensity of cell lysates (Tecan Spark® multimode microplate reader). Fluorescence intensity was plotted against total protein concentration determined by the commercially available Pierce™ BCA Protein Assay Kit (ThermoFisher Scientific).

T1 sequence (P98164 26-4655): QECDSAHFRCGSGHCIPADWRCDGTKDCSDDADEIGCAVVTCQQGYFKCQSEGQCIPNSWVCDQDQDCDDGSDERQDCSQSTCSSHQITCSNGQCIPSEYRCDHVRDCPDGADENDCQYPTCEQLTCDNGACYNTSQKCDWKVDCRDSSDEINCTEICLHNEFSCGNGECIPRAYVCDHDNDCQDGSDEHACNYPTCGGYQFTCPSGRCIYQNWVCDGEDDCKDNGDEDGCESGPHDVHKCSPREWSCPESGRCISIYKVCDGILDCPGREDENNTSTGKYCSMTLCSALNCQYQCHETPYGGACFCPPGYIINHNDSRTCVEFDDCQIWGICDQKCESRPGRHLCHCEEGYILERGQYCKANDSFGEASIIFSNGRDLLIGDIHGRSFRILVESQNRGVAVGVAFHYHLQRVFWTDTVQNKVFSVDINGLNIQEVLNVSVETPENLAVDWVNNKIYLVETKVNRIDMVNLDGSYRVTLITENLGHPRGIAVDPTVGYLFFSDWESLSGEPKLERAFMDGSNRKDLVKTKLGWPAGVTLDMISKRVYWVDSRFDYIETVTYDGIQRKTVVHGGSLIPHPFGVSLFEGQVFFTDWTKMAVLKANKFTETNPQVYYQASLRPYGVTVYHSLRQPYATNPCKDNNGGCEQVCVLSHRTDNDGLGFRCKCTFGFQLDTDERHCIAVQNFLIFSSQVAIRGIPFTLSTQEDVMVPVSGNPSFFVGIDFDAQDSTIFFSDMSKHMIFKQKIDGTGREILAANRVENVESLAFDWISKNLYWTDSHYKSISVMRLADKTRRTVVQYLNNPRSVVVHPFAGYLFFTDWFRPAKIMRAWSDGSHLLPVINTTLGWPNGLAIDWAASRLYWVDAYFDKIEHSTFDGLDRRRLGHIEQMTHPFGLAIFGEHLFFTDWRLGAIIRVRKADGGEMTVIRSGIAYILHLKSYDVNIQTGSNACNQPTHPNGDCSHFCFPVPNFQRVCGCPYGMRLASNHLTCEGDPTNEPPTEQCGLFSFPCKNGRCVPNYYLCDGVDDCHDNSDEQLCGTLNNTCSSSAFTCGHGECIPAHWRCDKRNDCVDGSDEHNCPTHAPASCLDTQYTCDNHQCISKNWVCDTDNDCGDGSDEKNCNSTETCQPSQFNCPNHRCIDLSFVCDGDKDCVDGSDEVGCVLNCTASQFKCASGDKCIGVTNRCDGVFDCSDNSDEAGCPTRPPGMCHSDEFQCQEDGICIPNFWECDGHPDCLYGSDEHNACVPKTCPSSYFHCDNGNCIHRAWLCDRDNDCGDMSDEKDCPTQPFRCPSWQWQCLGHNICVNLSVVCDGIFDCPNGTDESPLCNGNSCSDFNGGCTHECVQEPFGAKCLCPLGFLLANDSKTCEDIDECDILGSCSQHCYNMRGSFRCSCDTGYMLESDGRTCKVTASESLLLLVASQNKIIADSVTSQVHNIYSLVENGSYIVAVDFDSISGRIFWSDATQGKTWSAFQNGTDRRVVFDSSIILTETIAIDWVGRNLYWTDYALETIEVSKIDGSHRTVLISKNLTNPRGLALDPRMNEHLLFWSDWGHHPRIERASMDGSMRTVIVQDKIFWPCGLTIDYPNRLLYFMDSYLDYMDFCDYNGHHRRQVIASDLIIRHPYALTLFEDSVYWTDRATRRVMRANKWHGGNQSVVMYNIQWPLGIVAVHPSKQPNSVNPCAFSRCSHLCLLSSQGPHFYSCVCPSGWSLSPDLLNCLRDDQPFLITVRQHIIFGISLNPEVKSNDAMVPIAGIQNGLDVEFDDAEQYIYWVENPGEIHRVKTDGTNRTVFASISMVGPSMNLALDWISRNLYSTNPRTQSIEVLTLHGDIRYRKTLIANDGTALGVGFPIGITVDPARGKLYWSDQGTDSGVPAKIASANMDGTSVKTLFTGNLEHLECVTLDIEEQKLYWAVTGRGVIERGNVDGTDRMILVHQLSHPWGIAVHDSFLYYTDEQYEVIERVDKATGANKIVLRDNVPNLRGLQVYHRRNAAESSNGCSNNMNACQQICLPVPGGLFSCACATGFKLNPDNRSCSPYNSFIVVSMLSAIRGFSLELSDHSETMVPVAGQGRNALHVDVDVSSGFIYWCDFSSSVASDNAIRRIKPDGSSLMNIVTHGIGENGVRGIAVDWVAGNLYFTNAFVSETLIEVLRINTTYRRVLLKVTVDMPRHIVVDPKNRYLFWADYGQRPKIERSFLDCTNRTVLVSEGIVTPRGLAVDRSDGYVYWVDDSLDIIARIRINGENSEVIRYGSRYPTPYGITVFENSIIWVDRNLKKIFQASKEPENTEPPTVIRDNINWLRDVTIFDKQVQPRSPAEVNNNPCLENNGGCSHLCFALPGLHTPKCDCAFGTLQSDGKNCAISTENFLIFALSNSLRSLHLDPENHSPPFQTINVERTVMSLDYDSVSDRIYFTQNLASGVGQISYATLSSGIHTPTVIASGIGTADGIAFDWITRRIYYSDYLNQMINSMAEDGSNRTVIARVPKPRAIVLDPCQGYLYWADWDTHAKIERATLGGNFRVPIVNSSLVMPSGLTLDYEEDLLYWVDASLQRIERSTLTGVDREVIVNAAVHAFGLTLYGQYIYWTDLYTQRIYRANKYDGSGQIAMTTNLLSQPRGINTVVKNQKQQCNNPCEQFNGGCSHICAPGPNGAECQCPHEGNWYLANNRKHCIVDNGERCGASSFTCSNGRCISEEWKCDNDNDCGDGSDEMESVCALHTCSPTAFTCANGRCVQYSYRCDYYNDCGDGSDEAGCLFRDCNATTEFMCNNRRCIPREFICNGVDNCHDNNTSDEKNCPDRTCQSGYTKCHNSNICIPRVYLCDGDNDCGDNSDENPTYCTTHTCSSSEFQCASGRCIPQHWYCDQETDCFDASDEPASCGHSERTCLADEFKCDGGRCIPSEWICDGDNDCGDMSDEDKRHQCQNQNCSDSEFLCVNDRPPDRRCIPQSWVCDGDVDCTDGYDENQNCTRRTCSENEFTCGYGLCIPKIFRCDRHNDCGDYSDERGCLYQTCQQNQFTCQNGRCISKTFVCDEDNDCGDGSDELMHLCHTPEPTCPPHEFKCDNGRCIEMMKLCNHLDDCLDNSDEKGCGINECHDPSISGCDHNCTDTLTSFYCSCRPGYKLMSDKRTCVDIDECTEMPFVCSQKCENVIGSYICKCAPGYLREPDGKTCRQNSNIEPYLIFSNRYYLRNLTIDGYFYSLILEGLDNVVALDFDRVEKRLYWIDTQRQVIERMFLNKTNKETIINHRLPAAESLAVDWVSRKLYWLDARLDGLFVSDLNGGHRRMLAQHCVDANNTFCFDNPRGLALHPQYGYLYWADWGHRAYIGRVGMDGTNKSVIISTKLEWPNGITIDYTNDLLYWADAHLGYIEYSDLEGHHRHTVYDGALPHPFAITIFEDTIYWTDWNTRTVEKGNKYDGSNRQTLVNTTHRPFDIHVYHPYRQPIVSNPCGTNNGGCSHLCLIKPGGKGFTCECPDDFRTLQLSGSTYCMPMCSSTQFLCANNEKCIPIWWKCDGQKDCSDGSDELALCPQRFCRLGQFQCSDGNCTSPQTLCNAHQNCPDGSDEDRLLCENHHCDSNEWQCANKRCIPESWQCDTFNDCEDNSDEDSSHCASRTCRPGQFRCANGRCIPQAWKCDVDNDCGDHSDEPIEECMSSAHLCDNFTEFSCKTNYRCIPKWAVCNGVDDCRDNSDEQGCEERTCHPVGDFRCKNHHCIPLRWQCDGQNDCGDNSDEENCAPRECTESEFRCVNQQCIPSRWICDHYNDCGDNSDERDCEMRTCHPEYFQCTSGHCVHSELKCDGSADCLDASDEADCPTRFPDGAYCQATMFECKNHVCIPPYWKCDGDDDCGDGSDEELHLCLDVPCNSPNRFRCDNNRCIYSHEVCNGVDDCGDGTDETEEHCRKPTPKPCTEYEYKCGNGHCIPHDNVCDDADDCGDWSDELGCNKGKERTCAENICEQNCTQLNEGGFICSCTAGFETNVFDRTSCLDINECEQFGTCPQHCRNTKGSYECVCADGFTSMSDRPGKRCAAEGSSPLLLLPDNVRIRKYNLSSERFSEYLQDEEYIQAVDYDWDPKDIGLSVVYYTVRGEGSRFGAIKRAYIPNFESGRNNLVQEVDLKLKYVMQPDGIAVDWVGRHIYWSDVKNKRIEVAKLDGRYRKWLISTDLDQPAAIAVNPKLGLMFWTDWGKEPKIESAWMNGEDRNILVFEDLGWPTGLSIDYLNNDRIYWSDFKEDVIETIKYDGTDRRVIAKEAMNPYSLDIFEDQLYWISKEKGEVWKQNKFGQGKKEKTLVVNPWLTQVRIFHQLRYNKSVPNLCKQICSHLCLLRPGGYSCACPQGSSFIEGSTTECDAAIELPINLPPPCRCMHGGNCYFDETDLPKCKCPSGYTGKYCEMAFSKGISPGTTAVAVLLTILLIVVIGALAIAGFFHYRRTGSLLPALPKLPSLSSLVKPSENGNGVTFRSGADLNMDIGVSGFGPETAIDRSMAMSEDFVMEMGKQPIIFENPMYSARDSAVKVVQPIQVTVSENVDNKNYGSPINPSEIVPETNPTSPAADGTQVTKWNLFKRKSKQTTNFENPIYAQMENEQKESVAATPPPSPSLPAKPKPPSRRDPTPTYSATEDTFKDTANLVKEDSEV

Question: Which “Viability of partial KO or LRP2 KO cells after treatment, compared to HK2 parent cells” value [1] does the source give for CNC(C)C1CCC(N)C(OC2C(N)CC(N)C(OC3OCC(C)(O)C(NC)C3O)C2O)O1 (stereo not drawn) [gentamicin] here?
Answer: Its value is “higher viability”.

Question: Which Antiangiogenic effects [2] does the source give for “Ac-KLTWMELYQLAYKGI-NH2 [15-mer, 15 amino acid anti-VEGFR peptide, custom synthesized according to a previously published structure (Basile et al. 2011)]” here?
Answer: The Antiangiogenic effects was “potent antiangiogenic effects”.

Question: With “fluorescein isothiocyanate-labelled albumin [FITC-albumin]” as the compound, how does the “FITC-albumin accumulation in KO cells vs parent HK2 cells” value [3] read?
Answer: Its value is “Reduced FITC-albumin accumulation”.
